The text below walks through data of US10112935B2, “Indazolyl thiadiazolamines and related compounds for inhibition of Rho-associated protein kinase and the treatment of disease” (Lycera Corporation, priority 2015, dated 2018).

Bounds are passed on as bounds.

Assay [1] deals with GST-tagged human ROCK1 catalytic domain 1-477 (Homo sapiens (Human), UniProt Q13464). As to the kind of experiment: Inhibition of Rho-associated protein kinase isoform 1 (LANCE Ultra ULight-CREBtide FRET kinase assay). The following applies: 30 μM was the highest concentration analyzed. The format is biochemical. The gist of the method:
(§1)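 Baculovirus-expressed kinase phosphorylated ULight-CREBtide for 90 min at room temperature before the reaction was stopped with 10 mM EDTA. Phospho-substrate was detected by TR-FRET with 1 nM Europium-anti-phospho-CREB (Ser133) antibody after 60 min at room temperature.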
In general terms: In TR-FRET formats the signal depends on donor and acceptor labels being close together.

Assay [2] addresses GST-tagged human ROCK2 catalytic domain 1-553 (Homo sapiens (Human), UniProt O75116). As to the kind of experiment: Inhibition of Rho-associated protein kinase isoform 2 (LANCE Ultra ULight-CREBtide FRET kinase assay). The format is biochemical. The following applies: for IC50: 30 μM was the highest concentration analyzed; for Selectivity for ROCK2 over ROCK1 (IC50 ROCK1 / IC50 ROCK2): selectivity ROCK2 vs ROCK1. The essentials:
as §1

Chain of GST-tagged human ROCK1 catalytic domain 1-477 (Q13464 1-477): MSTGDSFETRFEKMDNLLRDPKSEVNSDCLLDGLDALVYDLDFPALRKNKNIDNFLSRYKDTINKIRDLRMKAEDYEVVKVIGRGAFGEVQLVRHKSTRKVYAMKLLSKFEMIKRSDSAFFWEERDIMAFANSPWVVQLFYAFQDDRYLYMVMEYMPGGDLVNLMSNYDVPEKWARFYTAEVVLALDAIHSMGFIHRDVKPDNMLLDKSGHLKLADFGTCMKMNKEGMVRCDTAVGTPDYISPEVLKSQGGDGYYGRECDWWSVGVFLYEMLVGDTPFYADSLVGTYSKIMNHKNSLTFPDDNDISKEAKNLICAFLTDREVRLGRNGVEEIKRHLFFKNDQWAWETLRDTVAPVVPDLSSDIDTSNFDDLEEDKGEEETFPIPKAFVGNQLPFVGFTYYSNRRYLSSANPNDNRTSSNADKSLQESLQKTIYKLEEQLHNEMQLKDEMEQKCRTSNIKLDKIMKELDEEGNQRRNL
Chain of GST-tagged human ROCK2 catalytic domain 1-553 (O75116 1-553): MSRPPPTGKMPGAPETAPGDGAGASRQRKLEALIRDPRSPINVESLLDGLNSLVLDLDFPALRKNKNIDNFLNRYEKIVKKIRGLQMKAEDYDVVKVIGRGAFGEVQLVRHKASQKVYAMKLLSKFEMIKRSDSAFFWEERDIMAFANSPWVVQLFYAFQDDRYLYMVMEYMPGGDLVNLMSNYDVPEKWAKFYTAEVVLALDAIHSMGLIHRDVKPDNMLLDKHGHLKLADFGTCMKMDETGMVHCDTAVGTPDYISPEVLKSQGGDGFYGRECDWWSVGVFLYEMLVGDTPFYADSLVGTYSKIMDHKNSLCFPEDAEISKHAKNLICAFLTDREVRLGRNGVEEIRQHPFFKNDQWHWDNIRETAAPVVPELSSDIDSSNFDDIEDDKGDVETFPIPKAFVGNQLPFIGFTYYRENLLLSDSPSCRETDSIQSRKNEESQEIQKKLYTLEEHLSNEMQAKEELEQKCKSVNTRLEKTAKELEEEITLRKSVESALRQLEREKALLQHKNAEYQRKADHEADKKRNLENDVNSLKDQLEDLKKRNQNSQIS

Turning to `c1cc2[nH]ncc2cc1Nc1nnc(C2CNCCN2)s1` (stereo not shown) [Example A-29], the IC50 in assay [1] and in assay [2] was 1 to 15 µM in each case. The “Selectivity for ROCK2 over ROCK1 (IC50 ROCK1 / IC50 ROCK2)” value (“Selectivity … (IC50 ROCK1 / IC50 ROCK2)” below) in assay [2] is recorded as <5.
In assay [1], `CC(=O)Nc1cccc(-c2nnc(Nc3ccc4[nH]ncc4c3C)s2)c1` [Example 35J] showed an IC50 of 1 to 15 µM. In assay [2], the IC50 was < 1 µM and the “Selectivity … (IC50 ROCK1 / IC50 ROCK2)” value was >5.
In the same order, the values of `CCS(=O)(=O)Nc1cccc(-c2nnc(Nc3ccc4[nH]ncc4c3)s2)c1` [Example A-8] are > 30 µM, 1 to 15 µM and >5.
For `CC(=O)Nc1cc(-c2ncco2)cc(-c2nnc(Nc3ccc4[nH]ncc4c3Cl)s2)c1.O=C(O)C(F)(F)F` [Example 46M] the same measures were > 30 µM, < 1 µM and >100.
In the same order, the values of `CN(c1nnc(-c2cccc(NC(=O)Cc3ccc(C#N)cc3)c2)s1)c1ccc2[nH]ncc2c1Cl` [Example 54B] are > 30 µM, 15 to 30 µM and <5.
Turning to `CC(=O)Nc1ccc(C)c(-c2nnc(Nc3ccc4[nH]ncc4c3Cl)s2)c1.O=C(O)C(F)(F)F` [Example 48I], the IC50 in assay [1] was < 1 µM. In assay [2], the half-inhibitory concentration (IC50) is < 1 µM and the “Selectivity … (IC50 ROCK1 / IC50 ROCK2)” value is listed as >5.
On to `CC1CCCCC1C(=O)Nc1cccc(-c2nnc(Nc3ccc4[nH]ncc4c3Cl)s2)c1` (stereo not shown) [Example 35H], for which the IC50 in assay [1] was 1 to 15 µM; in assay [2] it was < 1 µM. In assay [2], the “Selectivity … (IC50 ROCK1 / IC50 ROCK2)” value is >5.
`Cn1cnc2c(-c3nnc(Nc4ccc5[nH]ncc5c4)s3)cccc21` [Example A-15]: the IC50 in assay [1] is < 1 µM. For the same molecule, in assay [2], the IC50 is < 1 µM and the “Selectivity … (IC50 ROCK1 / IC50 ROCK2)” value is <5.
On to `O=C1Cc2c(cccc2-c2nnc(Nc3ccc4[nH]ncc4c3Cl)s2)N1` [Example 56D], for which the IC50 in assay [1] was > 30 µM; in assay [2], < 1 µM. Also, the “Selectivity … (IC50 ROCK1 / IC50 ROCK2)” value in assay [2] is given as >100.
For `Nc1cccc(-c2nsc(Nc3ccc4[nH]ncc4c3)n2)c1` [Example 35CU] the same measures were > 30 µM, 1 to 15 µM and >5.
For `NC(=O)c1cc(-c2ncco2)cc(-c2nnc(Nc3ccc4[nH]ncc4c3Cl)s2)c1` [Example 46L], the IC50 in assay [1] was > 30 µM. Besides, in assay [2], the IC50 is < 1 µM and the “Selectivity … (IC50 ROCK1 / IC50 ROCK2)” value was >100.
On to `CC(=O)Nc1cc(-c2nnc(Nc3ccc4[nH]ncc4c3Cl)s2)ccc1CN(C)C` [Example 48L], for which the IC50 in assay [1] lay in the range of 1 to 15 µM. Besides, in assay [2], the IC50 was < 1 µM and the “Selectivity … (IC50 ROCK1 / IC50 ROCK2)” value is listed as >5.
In the same order, the values of `CCn1cc(C(=O)Nc2cccc(-c3nnc(Nc4ccc5[nH]ncc5c4)s3)c2)cn1` [Example A-16] are < 1 µM, < 1 µM and >5.
For `CC(=O)Nc1cccc(-c2nnc(Nc3ccc4[nH]ncc4c3C(C)C)s2)c1` [Example 35I] the same measures were > 30 µM, 1 to 15 µM and >5.
In the same order, the values of `CN(CC(O)CO)C(=O)c1cccc(-c2nnc(Nc3ccc4[nH]ncc4c3)s2)c1` (stereo not shown) [Example A-10] are 15 to 30 µM, 1 to 15 µM and <5.
Turning to `O=C(Nc1cccc(-c2nnc(Nc3ccc4[nH]ncc4c3)s2)c1)c1cnn(CCO)c1` [Example A-20], in assay [1], the IC50 was > 30 µM. Besides, in assay [2], the IC50 is < 1 µM and the “Selectivity … (IC50 ROCK1 / IC50 ROCK2)” value is given as >100.
In the same order, the values of `CN1CCN(c2cccc(-c3nnc(Nc4ccc5[nH]ncc5c4Cl)s3)c2)C(=O)C1` [Example 42, 1-(3-(5-((4-Chloro-1H-indazol-5-yl)amino)-1,3,4-thiadiazol-2-yl)phenyl)-4-methylpiperazin-2-one] are 1 to 15 µM, 1 to 15 µM and >5.
In the same order, the values of `FC(F)(F)c1cn2cccc(-c3nnc(Nc4ccc5[nH]ncc5c4Cl)s3)c2n1` [Example 52C] are > 30 µM, < 1 µM and >100.
For `COc1cccc(-c2nnc(Nc3ccc4[nH]ncc4c3)s2)c1` [Example A-34] the same measures were > 30 µM, < 1 µM and >100.
As to `CCOc1ccc(CC(=O)Nc2cccc(-c3nnc(Nc4ccc5[nH]ncc5c4Cl)s3)c2)cc1` [Example 35BE], in assay [1], the IC50 was > 30 µM. For the same molecule, in assay [2], the half-maximal inhibitory concentration (IC50) was < 1 µM and the “Selectivity … (IC50 ROCK1 / IC50 ROCK2)” value is >100.
In the same order, the values of `CC(=O)Nc1cc(CC(=O)O)cc(-c2nnc(Nc3ccc4[nH]ncc4c3Cl)s2)c1` [Example 75S] are < 1 µM, < 1 µM and >5.
In the same order, the values of `CC(=O)Nc1cc(CO)cc(-c2nnc(Nc3ccc4[nH]ncc4c3Cl)s2)c1` [Example 48H] are < 1 µM, < 1 µM and >50.
With `Cn1cc(C(=O)Nc2cc(-c3nnc(Nc4ccc5[nH]ncc5c4)s3)ccn2)cn1.O=C(O)C(F)(F)F` [Example 35BY], the IC50 in assay [1] was > 30 µM. Besides, the “Selectivity … (IC50 ROCK1 / IC50 ROCK2)” value in assay [2] is recorded as >100.
Consider `O=C(Nc1cc(-c2nnc(Nc3ccc4[nH]ncc4c3Cl)s2)ccn1)c1ccc(F)cc1.O=C(O)C(F)(F)F` [Example 35B], for which the half-inhibitory concentration (IC50) in assay [1] was < 1 µM. In addition, in assay [2], the 50% inhibitory concentration (IC50) is < 1 µM and the “Selectivity … (IC50 ROCK1 / IC50 ROCK2)” value is <5.
Consider `Cn1cc(CC(=O)Nc2cccc(-c3nnc(Nc4ccc5[nH]ncc5c4Cl)s3)c2)cn1` [Example 35BH], for which the IC50 in assay [1] was < 1 µM. Also, in assay [2], the IC50 is < 1 µM and the “Selectivity … (IC50 ROCK1 / IC50 ROCK2)” value was >100.
In the case of `CC1CCN(C(=O)Nc2cccc(-c3nnc(Nc4ccc5[nH]ncc5c4)s3)c2)C1` (stereo not shown) [Example A-28], the 50% inhibitory concentration (IC50) in assay [1] is < 1 µM. Moreover, in assay [2], the IC50 was < 1 µM and the “Selectivity … (IC50 ROCK1 / IC50 ROCK2)” value was >5.
For the molecule `COc1cccc(-c2nnc(N(CCO)c3ccc4[nH]ncc4c3)s2)c1` [Example 54E], the half-inhibitory concentration (IC50) in assay [1] and in assay [2] was 15 to 30 µM throughout.
Take `Clc1c(Nc2nnc(-c3cccn4cc(C5CCCN5)nc34)s2)ccc2[nH]ncc12` (stereo not shown) [Example 50G]: the IC50 in assay [1] and in assay [2] was < 1 µM each time. In assay [2], the “Selectivity … (IC50 ROCK1 / IC50 ROCK2)” value is given as <5.
Consider `Cn1cc(CC(=O)Nc2cc(-c3nnc(Nc4ccc5[nH]ncc5c4Cl)s3)ccn2)cn1` [Example 36, N-(4-(5-((4-Chloro-1H-indazol-5-yl)amino)-1,3,4-thiadiazol-2-yl)pyridin-2-yl)-2-(1-methyl-1H-pyrazol-4-yl)acetamide], for which the IC50 in assay [1] and in assay [2] was < 1 µM throughout. The “Selectivity … (IC50 ROCK1 / IC50 ROCK2)” value in assay [2] is given as >5.

A word on the IC50: it is the concentration that gives 50% inhibition.
